Where two headings read alike, the source gives them in different places.
Test system: HCV 1b genotype
Assay: HCV replicon assay (HCV-neo replicon cells, wild-type)
Type: cell-based, Hepatitis C virus
Conditions: HCV 1b genotype replicon
How it was run: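 HCV-neo replicon cells (wild-type) and replicon cells carrying NS5A resistance substitutions were treated with compounds; assay per O'Boyle et al. 2005, with luciferase-reporter read-out variants also used.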

[1] = Hepatitis C virus, class symbols, read-out: EC50 Range against HCV 1b
[2] = Hepatitis C virus, class symbol, read-out: EC50 Range against HCV 1b
[3] = Hepatitis C virus, read-out: EC50 1b

CC(C)(C)O[C@@H]1C[C@@H](C(=O)Nc2ccc(-c3cnc(-c4ccc(NC(=O)[C@@H]5C[C@@H](OC(C)(C)C)CN5C(=O)Cc5cccnc5)cc4)o3)cc2)N(C(=O)Cc2cccnc2)C1 [XY-62, (2S,4R,2′S,4′R)-N,N′-(1,3-oxazole-2,5-diyldi-4,1-phenylene)bis(4-tert-butoxy-1-(3-pyridinylacetyl)-2-pyrrolidinecarboxamide)]
EC50 [1]: 4.57 to 99 nM

CC1CC1C(=O)N1CCC[C@H]1C(=O)Nc1ccc(-c2cnc(-c3ccc(NC(=O)[C@@H]4CCCN4C(=O)C4CC4C)cc3)o2)cc1 (stereo partly drawn) [XY-16, (2S,2′S)-N,N′-(1,3-oxazole-2,5-diyldi-4,1-phenylene)bis(1-((2-methylcyclopropyl)carbonyl)-2-pyrrolidinecarboxamide)]
EC50 [1]: 100 to 999 nM

CO[C@H](C(=O)N1CCC[C@H]1C(=O)Nc1ccc(-c2cnc(-c3ccc(NC(=O)[C@@H]4CCCN4C(=O)[C@@H](OC)c4ccccc4)cc3)o2)cc1)c1ccccc1 [JG-19, (2S,2′S)-N,N′-(1,3-oxazole-2,5-diyldi-4,1-phenylene)bis(1-((2S)-2-methoxy-2-phenylacetyl)-2-pyrrolidinecarboxamide)]
EC50 [2]: 4.57 to 99 nM | EC50 [3]: 9 nM

O=C(Nc1ccc(-c2nncn2-c2ccc(NC(=O)[C@@H]3CCCN3C(=O)Cc3ccccc3)cc2)cc1)[C@@H]1CCCN1C(=O)Cc1ccccc1 [OL-15, (2S,2′S)-N,N′-(4H-1,2,4-triazole-3,4-diyldi-4,1-phenylene)bis[1-(phenylacetyl)-2-pyrrolidinecarboxamide]]
EC50 [2]: 1000 to 10000 nM

CCc1ccccc1C(=O)N1CCC[C@H]1C(=O)Nc1ccc(-c2nnc(-c3ccc(NC(=O)[C@@H]4CCCN4C(=O)c4ccccc4CC)cc3)o2)cc1 [RK-9, (2S,2′S)-N,N′-(1,3,4-oxadiazole-2,5-diyldi-4,1-phenylene)bis(1-(2-ethylbenzoyl)-2-pyrrolidinecarboxamide)]
EC50 [2]: 100 to 999 nM

O=C(Nc1ccc(-c2cc(-c3ccc(NC(=O)[C@@H]4CCCN4C(=O)[C@@H](O)c4ccccc4)cc3)[nH]n2)cc1)[C@@H]1CCCN1C(=O)[C@@H](O)c1ccccc1 [JG-33, (2S,2′S)-N,N′-(1H-pyrazole-3,5-diyldi-4,1-phenylene)bis(1-((2S)-2-hydroxy-2-phenylacetyl)-2-pyrrolidinecarboxamide)]
EC50 [2]: 4.57 to 99 nM

O=C(Nc1ccc(-c2nc[nH]c2-c2ccc(NC(=O)[C@@H]3CCCN3C(=O)[C@H](O)c3ccccc3)cc2)cc1)[C@@H]1CCCN1C(=O)[C@H](O)c1ccccc1 [JG-43, (2S,2′S)-N,N′-(1H-imidazole-4,5-diyldi-4,1-phenylene)bis(1-((2R)-2-hydroxy-2-phenylacetyl)-2-pyrrolidinecarboxamide)]
EC50 [2]: < 4.57 nM

O=C(O)Cc1nc(-c2ccc(NC(=O)[C@@H]3CCCN3C(=O)OCc3ccccc3)cc2)c(-c2ccc(NC(=O)[C@@H]3CCCN3C(=O)OCc3ccccc3)cc2)o1 [OL-3, 4,5-bis[4-[[[(2S)-1-[(phenylmethoxy)carbonyl]-2-pyrrolidinyl]carbonyl]amino]phenyl]-2-oxazoleacetic acid]
EC50 [2]: 1000 to 10000 nM

CO[C@H]1C[C@@H](C(=O)Nc2ccc(-c3cnc(-c4ccc(NC(=O)[C@@H]5C[C@H](OC)CN5C(=O)[C@@H](c5ccccc5)N(C)C)cc4)o3)cc2)N(C(=O)[C@@H](c2ccccc2)N(C)C)C1 [OL-59, (2S,4S,2′S,4′S)-N,N′-(1,3-oxazole-2,5-diyldi-4,1-phenylene)bis(1-((2R)-2-(dimethylamino)-2-phenylacetyl)-4-methoxy-2-pyrrolidinecarboxamide)]
EC50 [2]: < 4.57 nM

O=C(Nc1ccc(-c2cnc(-c3ccc(NC(=O)[C@@H]4CCCN4C(=O)Cc4ccccc4)cc3)o2)cc1)[C@@H]1CCCN1C(=O)Cc1ccccc1 [JG-3, (2S,2′S)-N,N′-(1,3-oxazole-2,5-diyldi-4,1-phenylene)bis(1-(phenylacetyl)-2-pyrrolidinecarboxamide)]
EC50 [2]: < 4.57 nM

CC(=O)N1CCC[C@H]1C(=O)Nc1ccc(-c2sc(C)nc2-c2ccc(NC(=O)[C@@H]3CCCN3C(=O)Cc3ccccc3)cc2)cc1 [Example D-42, (2S)-1-acetyl-N-(4-(2-methyl-4-(4-((((2S)-1-(phenylacetyl)-2-pyrrolidinyl)carbonyl)amino)phenyl)-1,3-thiazol-5-yl)phenyl)-2-pyrrolidinecarboxamide]
EC50 [2]: 1000 to 10000 nM

COc1ccccc1CC(=O)N1CCC[C@H]1C(=O)Nc1ccc(-c2cnc(-c3ccc(NC(=O)[C@@H]4CCCN4C(=O)Cc4ccccc4OC)cc3)o2)cc1 [XY-35, (2S,2′S)-N,N′-(1,3-oxazole-2,5-diyldi-4,1-phenylene)bis(1-((2-methoxyphenyl)acetyl)-2-pyrrolidinecarboxamide)]
EC50 [1]: 100 to 999 nM

C[C@H](NC(=O)[C@@](C)(O)c1ccccc1)C(=O)Nc1ccc(-c2cc(-c3ccc(NC(=O)[C@H](C)NC(=O)[C@@](C)(O)c4ccccc4)cc3)[nH]n2)cc1 [OL-45, (2S,2′S)-N,N′-(1H-pyrazole-3,5-diylbis(4,1-phenyleneimino((2S)-1-oxo-1,2-propanediyl)))bis(2-hydroxy-2-phenylpropanamide)]
EC50 [2]: < 4.57 nM

O=C(Nc1ccc(-c2nc[nH]c2-c2ccc(NC(=O)[C@@H]3CCCN3C(=O)c3cc4ccccc4o3)cc2)cc1)[C@@H]1CCCN1C(=O)c1cc2ccccc2o1 [JG-51, (2S,2′S)-N,N′-(1H-imidazole-4,5-diyldi-4,1-phenylene)bis(1-(1-benzofuran-2-ylcarbonyl)-2-pyrrolidinecarboxamide)]
EC50 [2]: 100 to 999 nM

O=C(Nc1ccc(-c2cnc(-c3ccc(NC(=O)[C@@H]4CCCN4C(=O)C4CCCCN4CC4CCCCC4)cc3)o2)cc1)[C@@H]1CCCN1C(=O)C1CCCCN1CC1CCCCC1 (stereo partly drawn) [Example D-22, (2S,2′S)-N,N′-(1,3-oxazole-2,5-diyldi-4,1-phenylene)bis(1-((1-(cyclohexylmethyl)-2-piperidinyl)carbonyl)-2-pyrrolidinecarboxamide)]
EC50 [2]: 100 to 999 nM

O=C(Nc1ccc(-c2cnc(-c3ccc(NC(=O)[C@@H]4CCCN4C(=O)CN4C(=O)OC(c5ccccc5)C4=O)cc3)o2)cc1)[C@@H]1CCCN1C(=O)CN1C(=O)OC(c2ccccc2)C1=O (stereo partly drawn) [JR-22, (2S,2′S)-N,N′-(2,5-oxazolediyldi-4,1-phenylene)bis[1-[(2,4-dioxo-5-phenyl-3-oxazolidinyl)acetyl]-2-pyrrolidinecarboxamide]]
EC50 [1]: 1000 to 10000 nM | EC50 [3]: 1720 nM

O=C(Nc1ccc(-c2cnc(-c3ccc(NC(=O)[C@@H]4CCCN4C(=O)C4CCCO4)cc3)o2)cc1)[C@@H]1CCCN1C(=O)C1CCCO1 (stereo partly drawn) [XY-31, (2S,2′S)-N,N′-(1,3-oxazole-2,5-diyldi-4,1-phenylene)bis(1-(tetrahydro-2-furanylcarbonyl)-2-pyrrolidinecarboxamide)]
EC50 [1]: 4.57 to 99 nM | EC50 [3]: 54 nM

O=C(Nc1ccc(-c2cnc(-c3ccc(NC(=O)[C@@H]4CCCN4C(=O)[C@H]4CCCN4)cc3)o2)cc1)[C@@H]1CCCN1C(=O)[C@H]1CCCN1 [Example D-35, (2S,2′S)-N,N′-(1,3-oxazole-2,5-diyldi-4,1-phenylene)bis(1-((2R)-2-pyrrolidinylcarbonyl)-2-pyrrolidinecarboxamide)]
EC50 [2]: 1000 to 10000 nM | EC50 [3]: 5240 nM

CN(C)C(C(=O)N1CCC[C@H]1C(=O)Nc1ccc(-c2cnc(-c3ccc(NC(=O)[C@@H]4CCCN4C(=O)C(c4ccc(F)cc4F)N(C)C)cc3)o2)cc1)c1ccc(F)cc1F (stereo partly drawn) [Example D-5, (2S,2′S)-N,N′-(2,5-oxazolediyldi-4,1-phenylene)bis[1-[(2,4-difluorophenyl)(dimethylamino)acetyl]-2-pyrrolidinecarboxamide]]
EC50 [2]: < 4.57 nM

O=C(Nc1ccc(-c2nnc(-c3ccc(NC(=O)[C@@H]4CCCN4C(=O)[C@H](O)c4ccccc4)cc3)o2)cc1)[C@@H]1CCCN1C(=O)[C@H](O)c1ccccc1 [RK-16, (2S,2′S)-N,N′-(1,3,4-oxadiazole-2,5-diyldi-4,1-phenylene)bis(1-((2R)-2-hydroxy-2-phenylacetyl)-2-pyrrolidinecarboxamide)]
EC50 [2]: < 4.57 nM | EC50 [3]: < 5 nM

CC(NC(=O)[C@@H](O)c1ccccc1)C(=O)Nc1ccc(-c2cc(-c3ccc(NC(=O)[C@H](C)NC(=O)[C@@H](O)c4ccccc4)cc3)n[nH]2)cc1 (stereo in doubt) [OL-43, (S)-2-((S)-2-hydroxy-2-phenylacetamido)-N-(4-(5-(4-((R)-2-((S)-2-hydroxy-2-phenylacetamido)propanamido)phenyl)-1H-pyrazol-3-yl)phenyl)propanamide]
EC50 [2]: 4.57 to 99 nM

CN(C)[C@H](C(=O)N1CCC[C@H]1C(=O)Nc1ccc(-c2cnc(-c3ccc(NC(=O)[C@@H]4CCCN4C(=O)[C@H]([C@@H](O)c4ccccc4)N(C)C)cc3)o2)cc1)[C@@H](O)c1ccccc1 [JR-13, (S,S,2S)-N,N′-(4,4′-(oxazole-2,5-diyl)bis(4,1-phenylene))bis(1-((2S,3S)-2-(dimethylamino)-3-hydroxy-3-phenylpropanoyl)pyrrolidine-2-carboxamide)]
EC50 (class symbols, read-out: EC50 Range against HCV 1b): 100 to 999 nM | EC50 (read-out: EC50 1b): 112 nM

O=C(Nc1ccc(-c2cc(-c3ccc(NC(=O)[C@@H]4C[C@@H](O)CN4C(=O)Cc4ccccc4)cc3)[nH]n2)cc1)[C@@H]1C[C@@H](O)CN1C(=O)Cc1ccccc1 [OL-28, (2S,4R,2′S,4′R)-N,N′-(1H-pyrazole-3,5-diyldi-4,1-phenylene)bis(4-hydroxy-1-(phenylacetyl)-2-pyrrolidinecarboxamide)]
EC50 [2]: 4.57 to 99 nM

Cc1cc(CC(=O)N2C[C@H](OC(C)(C)C)C[C@H]2C(=O)Nc2ccc(-c3cnc(-c4ccc(NC(=O)[C@@H]5C[C@@H](OC(C)(C)C)CN5C(=O)Cc5cc(C)no5)cc4)o3)cc2)on1 [XY-70, (2S,4R,2′S,4′R)-N,N′-(1,3-oxazole-2,5-diyldi-4,1-phenylene)bis(4-tert-butoxy-1-((3-methyl-5-isoxazolyl)acetyl)-2-pyrrolidinecarboxamide)]
EC50 [1]: 4.57 to 99 nM

O=C(Nc1ccc(-c2cnc(-c3ccc(NC(=O)[C@@H]4CCCN4C(=O)c4sccc4Cl)cc3)o2)cc1)[C@@H]1CCCN1C(=O)c1sccc1Cl [XY-25, (2S,2′S)-N,N′-(1,3-oxazole-2,5-diyldi-4,1-phenylene)bis(1-((3-chloro-2-thienyl)carbonyl)-2-pyrrolidinecarboxamide)]
EC50 [1]: 1000 to 10000 nM
